Experimental data reported in publication PMC8694812 (RSC Advances, 2021).

Legend:
A549 cells = assay: MTT cell viability of A549 cells, dark and 660 nm LED irradiation; assay type: cell-based, human; conditions: 24 hours, 660 nm 30 min
BEAS-2B cells = assay: MTT cell viability of BEAS-2B cells, dark and 660 nm LED irradiation; assay type: cell-based, human; conditions: Eu bis up to 50 μM, Lu bis above 2.5 μM, ZnPc 0.25 μM or above
[1] = ZnPc standard, cited from earlier work
[2] = ZnPc standard, cited from earlier work; remark: listed apart in the source
[3] = DMSO, ZnPc standard; cited from earlier work

Q: For `[Zn+2].c1ccc2c(c1)-c1nc-2nc2[n-]c(nc3nc([n-]c4nc(n1)-c1ccccc1-4)-c1ccccc1-3)c1ccccc21` [ZnPc, unsubstituted zinc(II)phthalocyanine], which “effect of light irradiation on viability/toxicity” value (A549 cells) is on record?
A: The value was “high toxicity in the sub-μM range”.

Q: What about the “effect of light irradiation on viability” value (BEAS-2B cells) of the same compound?
A: Its value is “reduced the viability”.

Q: What about the “Direct ΦΔ in THF” value ([1]; fraction) of the same compound?
A: Its value is 0.530 (ref. [66]).

Q: And the “ΦΔ (%) Direct in THF” value ([1]; singlet oxygen quantum yield, THF)?
A: The value was 53%.

Q: And the “Indirect ΦΔ in DMSO” value ([2]; fraction)?
A: The value was 0.670 (ref. [65]).

Q: And the “ΦΔ (%) Indirect in DMSO” value ([2]; singlet oxygen quantum yield, DMSO)?
A: Its value is 67%.

Q: And the “ΦF (fluorescence quantum yield)” value [3]?
A: The value was 0.180 (ref. [64]).
